Results taken from patent US9969742B2, “Imidazotriazinone compounds” (Ironwood Pharmaceuticals, Inc., priority 2012, dated 2018).

molecular target: T1, PDE9A2 (Homo sapiens, UniProt O76083); assay: Phosphodiesterase enzyme screening assay, PDE9A2; format: biochemical; details: 4.0 μM cGMP substrate, 1 hour at R.T.; read-out: Band (PDE9A2 IC50)
T1 construct: purchased Reaction Biology Corporation, Malvern, Pa
Excerpt: Compounds of the invention were screened against PDE1A, PDE1B, PDE2A, PDE3A, PDE3B, PDE4A1A, PDE4B1, PDE4D3, PDE5A1, PDE6C, PDE7A, PDE8A1, PDE9A2, PDE10A2 AND PDE11A isoforms of the phosphodiesterase enzyme to determine activity and overall selectivity through comparative analysis. […] Where 8-methoxy-IBMX and Zaprinast were used as reference inhibitors.
The phosphodiesterase enzyme isoforms were obtained from a commercial retailer (Reaction Biology Corporation, Malvern, Pa.) for use in the instant screening assay.
The analysis was completed using the Caliper LabChip 3000 and a 12-sipper LabChip. LabChip assays are separations-based, meaning that the product and substrate are electrophoretically separated, thereby minimizing interferences and yielding the highest data quality available on any screening platform. […] High Z′ values, few false positives, few false negatives and analytical quality reproducibility are the reasons cited for the increasing reliance on the LabChip assays.
The off-chip incubation mobility-shift phosphodiesterase assay uses a microfluidic chip to measure the conversion of a fluorescent cyclic AMP substrate to a 5′-AMP product, or a cyclic GMP substrate to a 5′-GMP product. The reaction mixture, from a microtiter plate well, is introduced through a capillary sipper onto the chip, where the fluorescent substrate and product are separated by electrophoresis and detected via laser-induced fluorescence. […] The precision of microfluidics allows researchers to detect subtle interactions between drug candidates and therapeutic targets.
Reactions were carried out in 100 mM HEPES (pH 7.5), 5 mM MgCl2, 1 mM DTT, 0.003% Brij, 4.0 μM cGMP substrate. The reaction was started by addition of cGMP or cAMP and incubated for 1 hour at R.T. The reaction was terminated by the addition of stop buffer containing 100 mM HEPES (pH 7.5), 15 mM EDTA, 0.015% Brij-35, 5% DMSO. Cyclic AMP/GMP substrate and 5′-AMP/5′-GMP product were separated by charge using electrophoretic mobility shift. Product formed was compared to control wells to determine inhibition or enhancement of enzyme activity.
Data points were averages of quadruplicate wells and error bars represented the SEM for each point.

T1 sequence (O76083 1-533 isoform O76083-2): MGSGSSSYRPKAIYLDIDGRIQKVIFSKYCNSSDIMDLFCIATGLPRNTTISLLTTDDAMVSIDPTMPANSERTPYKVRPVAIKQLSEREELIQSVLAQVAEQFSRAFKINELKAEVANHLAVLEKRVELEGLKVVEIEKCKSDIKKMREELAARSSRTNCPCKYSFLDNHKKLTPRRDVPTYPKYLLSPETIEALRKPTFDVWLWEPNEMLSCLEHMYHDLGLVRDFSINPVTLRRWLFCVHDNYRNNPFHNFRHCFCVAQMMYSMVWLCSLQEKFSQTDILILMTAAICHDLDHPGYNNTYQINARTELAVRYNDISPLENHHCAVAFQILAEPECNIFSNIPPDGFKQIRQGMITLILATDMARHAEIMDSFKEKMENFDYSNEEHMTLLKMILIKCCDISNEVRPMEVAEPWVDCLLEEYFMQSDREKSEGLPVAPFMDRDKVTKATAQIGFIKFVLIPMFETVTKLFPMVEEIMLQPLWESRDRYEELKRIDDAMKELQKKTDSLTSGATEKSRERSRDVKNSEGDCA

Row | Compound | IC50
1 | CC1CN(Cc2ccccc2)CC1c1nn2c(CC(F)(F)F)ncc2c(=O)[nH]1 (single isomer, unassigned; (+)) [(+)-2-((3,4-trans)-1-benzyl-4-methylpyrrolidin-3-yl)-7-(2,2,2-trifluoroethyl) imidazo [5,1-f] [1,2,4] triazin-4 (3H)-one] | < 1000 nM

same assay, conditions: Table 1; 10 concentrations; 4.0 μM cGMP substrate; 1 hour at R.T.; read-out: Band (PDE9A2 IC50)

Row | Compound | IC50
2 | CCS(=O)(=O)N1CC(C)C(c2nn3c(C4CCOCC4)ncc3c(=O)[nH]2)C1 (single isomer, unassigned; (+)) [(+)-2-((3,4-trans)-1-(ethylsulfonyl)-4-methylpyrrolidin-3-yl)-7-(tetrahydro-2H-pyran-4-yl)imidazo[5,1-f][1,2,4]triazin-4(3H)-one] | 1000 to 10000 nM
3 | CC1CN(C(=O)c2ccccc2)CC1c1nn2c(C3CCOCC3)ncc2c(=O)[nH]1 (single isomer, unassigned; (+)) [(+)-2-((3,4-trans)-1-benzoyl-4-methylpyrrolidin-3-yl)-7-(tetrahydro-2H-pyran-4-yl)imidazo[5,1-f][1,2,4]triazin-4(3H)-one] | 1000 to 10000 nM
4 | Cc1ccc(F)cc1-c1ncc2c(=O)[nH]c(C3CN(Cc4ccccc4)CC3C)nn12 (single isomer, unassigned; (+)) [(+)-2-((3,4-trans)-1-benzyl-4-methylpyrrolidin-3-yl)-7-(5-fluoro-2-methylphenyl)imidazo[1,5-f][1,2,4]triazin-4(3H)-one] | < 1000 nM
5 | CC1CN(Cc2ccccc2)CC1c1nn2c(C3CCOCC3)ncc2c(=O)[nH]1 (single isomer, unassigned; (+)) [(+)-2-((3,4-trans)-1-benzyl-4-methylpyrrolidin-3-yl)-7-(tetrahydro-2H-pyran-4-yl)imidazo[1,5-f][1,2,4]triazin-4(3H)-one] | < 1000 nM
6 | CC1CN(C(=O)c2ccccc2C#N)CC1c1nn2c(C3CCOCC3)ncc2c(=O)[nH]1 (single isomer, unassigned; (+)) [(+)-2-((3,4-trans)-3-methyl-4-(4-oxo-7-(tetrahydro-2H-pyran-4-yl)-3,4-dihydroimidazo[5,1-f][1,2,4]triazin-2-yl)pyrrolidine-1-carbonyl)benzonitrile] | 1000 to 10000 nM
7 | CC1CN(S(=O)(=O)c2ccccc2)CC1c1nn2c(C3CCOCC3)ncc2c(=O)[nH]1 (single isomer, unassigned; (+)) [(+)-2-((3,4-trans)-4-methyl-1-(phenylsulfonyl)pyrrolidin-3-yl)-7-(tetrahydro-2H-pyran-4-yl)imidazo[5,1-f][1,2,4]triazin-4(3H)-one] | < 1000 nM
8 | CC1CN(S(=O)(=O)c2cccnc2)CC1c1nn2c(C3CCOCC3)ncc2c(=O)[nH]1 (single isomer, unassigned; (+)) [(+)-2-((3,4-trans)-4-methyl-1-(pyridin-3-ylsulfonyl)pyrrolidin-3-yl)-7-(tetrahydro-2H-pyran-4-yl)imidazo[5,1-f][1,2,4]triazin-4(3H)-one] | < 1000 nM
9 | CC1CN(Cc2ncccn2)CC1c1nn2c(C3CCOC3)ncc2c(=O)[nH]1 (single isomer, unassigned; (+)) [(+)-2-((3,4-trans)-4-methyl-1-(pyrimidin-2-ylmethyl)pyrrolidin-3-yl)-7-(tetrahydrofuran-3-yl)imidazo[5,1-f][1,2,4]triazin-4(3H)-one] | < 1000 nM
10 | CC1CN(C(=O)c2ncccn2)CC1c1nn2c(C3CCOCC3)ncc2c(=O)[nH]1 (single isomer, unassigned; (+)) [(+)-2-((3,4-trans)-4-methyl-1-(pyrimidine-2-carbonyl)pyrrolidin-3-yl)-7-(tetrahydro-2H-pyran-4-yl)imidazo[5,1-f][1,2,4]triazin-4(3H)-one] | 1000 to 10000 nM

same assay, conditions: Table 2; 10 concentrations; 4.0 μM cGMP substrate; 1 hour at R.T.; read-out: Band (PDE9A2 IC50)

Row | Compound | IC50
11 | CC1CN(CC(F)(F)F)CC1c1nn2c(C3CCOCC3)ncc2c(=O)[nH]1 (single isomer, unassigned; (+)) [(+)-2-((3,4-trans)-4-methyl-1-(2,2,2-trifluoroethyl)pyrrolidin-3-yl)-7-(tetrahydro-2H-pyran-4-yl)imidazo[5,1-f][1,2,4]triazin-4(3H)-one] | < 1000 nM
12 | CC1CN(C(=O)Cc2cncnc2)CC1c1nn2c(C3CCOCC3)ncc2c(=O)[nH]1 (single isomer, unassigned; (+)) [(+)-2-((3,4-trans)-4-methyl-1-(2-(pyrimidin-5-yl)acetyl)pyrrolidin-3-yl)-7-(tetrahydro-2H-pyran-4-yl)imidazo[5,1-f][1,2,4]triazin-4(3H)-one] | 1000 to 10000 nM
13 | CSc1cnc(CN2CC(C)C(c3nn4c(C5CCOCC5)ncc4c(=O)[nH]3)C2)nc1 (single isomer, unassigned; (+)) [(+)-2-((3,4-trans)-4-methyl-1-((5-(methylthio)pyrimidin-2-yl)methyl)pyrrolidin-3-yl)-7-(tetrahydro-2H-pyran-4-yl)imidazo[5,1-f][1,2,4]triazin-4(3H)-one] | < 1000 nM
14 | CC1CN(Cc2ncc(C(F)(F)F)cn2)CC1c1nn2c(C3CCOCC3)ncc2c(=O)[nH]1 (single isomer, unassigned; (+)) [(+)-2-((3,4-trans)-4-methyl-1-((5-(trifluoromethyl)pyrimidin-2-yl)methyl)pyrrolidin-3-yl)-7-(tetrahydro-2H-pyran-4-yl)imidazo[5,1-f][1,2,4]triazin-4(3H)-one] | < 1000 nM

same assay, conditions: read-out: Band (PDE9A2 IC50)

Row | Compound | IC50
15 | CC1CN(CC2CCCC2)CC1c1nn2c(C3CCOCC3)ncc2c(=O)[nH]1 (single isomer, unassigned; (+)) [(+)-2-((3,4-trans)-1-(cyclopentylmethyl)-4-methylpyrrolidin-3-yl)-7-(tetrahydro-2H-pyran-4-yl)imidazo[5,1-f][1,2,4]triazin-4(3H)-one] | < 1000 nM
16 | CC1CN(CC2CC2)CC1c1nn2c(C3CCOCC3)ncc2c(=O)[nH]1 (single isomer, unassigned; (+)) [(+)-2-((3,4-trans)-1-(cyclopropylmethyl)-4-methylpyrrolidin-3-yl)-7-(tetrahydro-2H-pyran-4-yl)imidazo[5,1-f][1,2,4]triazin-4(3H)-one] | 1000 to 10000 nM
17 | CC1CN(Cc2cn3ccccc3n2)CC1c1nn2c(-c3ccccc3)ncc2c(=O)[nH]1 (single isomer, unassigned; (+)) [(+)-2-((3,4-trans)-1-(imidazo[1,2-a]pyridin-2-ylmethyl)-4-methylpyrrolidin-3-yl)-7-phenylimidazo[5,1-f][1,2,4]triazin-4(3H)-one] | < 1000 nM
18 | CC1CN(Cc2ccccc2)CC1c1nn2c(C3CCCC3)ncc2c(=O)[nH]1 (single isomer, unassigned; (+)) [(+)-2-((3,4-trans)-1-benzyl-4-methylpyrrolidin-3-yl)-7-cyclopentylimidazo[5,1-f][1,2,4]triazin-4(3H)-one] | < 1000 nM
19 | CC1CN(CC2CCN(C)CC2)CC1c1nn2c(C3CCOCC3)ncc2c(=O)[nH]1 (single isomer, unassigned; (+)) [(+)-2-((3,4-trans)-4-methyl-1-((1-methylpiperidin-4-yl)methyl)pyrrolidin-3-yl)-7-(tetrahydro-2H-pyran-4-yl)imidazo[5,1-f][1,2,4]triazin-4(3H)-one] | 1000 to 10000 nM
20 | CCC(CC)c1ncc2c(=O)[nH]c(C3CN(Cc4ncccn4)CC3C)nn12 (single isomer, unassigned; (+)) [(+)-2-((3,4-trans)-4-methyl-1-(pyrimidin-2-ylmethyl)pyrrolidin-3-yl)-7-(pentan-3-yl)imidazo[5,1-f][1,2,4]triazin-4(3H)-one] | < 1000 nM
21 | CC1CN(Cc2ncccn2)CC1c1nn2c(-c3ccccc3)ncc2c(=O)[nH]1 (single isomer, unassigned; (+)) [(+)-2-((3,4-trans)-4-methyl-1-(pyrimidin-2-ylmethyl)pyrrolidin-3-yl)-7-phenylimidazo[5,1-f][1,2,4]triazin-4(3H)-one] | < 1000 nM
